Test system: 966289-007-R4-J1-PDC complex spheroid viability
Assay: Anticancer human tumor 966289-007-R4-J1-PDC patient-derived pancreatic adenocarcinoma cell line growth inhibition [RAS]
Settings: for viability, T/C: stronger effect = lower value
Excerpt: RAS pathway inhibitors in Combinations in Complex Spheroids
A high-throughput screen of multi-cell type tumor spheroids was designed to identify active combinations of RAS pathway inhibitors and targeted small molecules. Complex spheroids include a stromal component modeled by human endothelial cells (HUVEC) and fibroblasts modeled by human mesenchymal stem cells (MSCs). The concentration ranges selected for each drug and investigational agent were based upon clinically achievable concentrations if the clinical Cmax of the agent was known.
Compounds. The drugs and investigational agents: abemaciclib (NSC768073), cobimetinib (NSC768068), divarasib (GDC6063, NSC841802), docetaxel (NSC628503), GDC-1971 (RLY-1971, NSC841576), gemcitabine (NSC613327), inavolisib (NSC800729), ipatasertib (NSC767898), KB-0742 (NSC834161), MRTX-1133 (NSC836407), osimertinib (NSC779217), RMC-4630 (NSC839698), RMC-6236 (NSC851965), RMC-6291 (NSC852671), Ro-3306 (NSC812927), sapanisertib (NSC764658), SN-38 (NSC673596), staurosporine (NSC755774), SY5609 (NSC837396), and tovorafenib (DAY101, NSC766906), were obtained from the National Cancer Institute (NCI) Developmental Therapeutics Program Chemical Repository. The FDA-approved anticancer drug set is available from the NCI Developmental Therapeutics Program. […] The stock solutions were prepared in dimethyl sulfoxide (DMSO, Sigma-Aldrich, St. Louis, MO, cat. D2650) at 800-fold the tested concentration and stored at -70 degrees C prior to their use. All drugs and investigational agents were tested over a range starting from a high concentration at or near the clinical Cmax and decreasing in half-log increments. If the clinical Cmax for an agent had not been determined, the highest concentration tested was 10 microM.
Cell Culture. All cells were maintained in an incubator at 37 degrees C and 5% CO2 with 95% humidity. The PDC lines were cultured according to standard operating procedures established by the NCI PDMR. All PDCs were thawed and cultured in Matrigel-coated flasks prepared with a working solution of 1X Ham's F-12 nutrient mix, without supplementation (Invitrogen, Waltham, MA, cat. 11765054), 100 U/mL penicillin-streptomycin (Invitrogen, cat. 15140122), and 2.5% Matrigel (Corning Inc., Corning, NY, cat. 354248) for the first three passages. The 362531-283-R-J2-PDC and 782815-120-R-J1-PDC lines were cultured in 6C/Colon 1B media, which includes advanced DMEM/F-12 (Thermo Fisher Scientific, cat. 12634028), 10 mM HEPES (Thermo Fisher Scientific, cat. 15630080), 1X GlutaMAX supplement (Thermo Fisher Scientific, cat. 35050061), 0.1 mg/mL primocin (InvivoGen, San Diego, CA, cat. ant-pm-2), 10% defined fetal bovine serum, heat inactivated (HyClone Laboratories Inc., Logan, UT, cat. SH30070.03HI), 50% L-WRN conditioned media (ATCC, cat. CRL-3276), 1.25 mM N-Acetyl-L-cysteine (Sigma-Aldrich, cat. A9165), 10 mM nicotinamide (Sigma-Aldrich, cat. N0636), 1X B-27 supplement (Thermo Fisher Scientific, cat. 17504044), 1X N-2 supplement (Thermo Fisher Scientific, cat. 17502048), 50 ng/mL human EGF (Thermo Fisher Scientific, cat. PHG0311), and 10 microM Y-27632 dihydrochloride (Tocris Bioscience, cat. 1254). The K12877-001-R-J1-PDC line was cultured in 6I media, which includes all 6C/Colon 1B media plus 10 ng/mL human FGF-10 (PeproTech, cat. 100-26), 1 ng/mL human FGF-2 (PeproTech, cat. 100-18B), 1 µM prostaglandin E2 (Tocris Bioscience, cat. 2296), […] hydrocortisone (Sigma-Aldrich, cat. H4001), and […] bovine insulin (Sigma-Aldrich, cat. I6634). The K86415-001-R-J1-PDC line was cultured in 6D media, which includes all 6C/Colon 1B media components minus the L-WRN conditioned media. The 485176-168-R4-J1-PDC was cultured in PANC media, which includes all 6C/Colon 1B media plus 100 ng/mL human FGF-10 (PeproTech, cat. 100-26), 500 nM SB-431542 (Selleckchem, cat. S1067), and 10 nM gastrin (Tocris Bioscience, cat. 3006). […]
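Note: spheroids exposed to agents for one week before readout.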
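Throughout, for viability, T/C: percent viability relative to DMSO vehicle control wells as 100%.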

Which results are given for Cc1nc(N2CCC3(CC2)COC(C)C3N)c(CO)nc1Sc1ccnc(N)c1Cl (configuration not stated) + CCn1c(-c2cc(N3CCN(C)CC3)cnc2C(C)OC)c2c3cc(ccc31)-c1csc(n1)CC(NC(=O)C1CC1C)C(=O)N1CCCC(N1)C(=O)OCC(C)(C)C2?
IC50 (curve of first compound, second compound 0.000949 µM): > 10000 nM; IC50 (curve of first compound, second compound 0.003 µM): > 10000 nM; IC50 (curve of first compound, second compound 0.00949 µM): > 10000 nM; IC50 (curve of first compound, second compound 0.03 µM): > 10000 nM; IC50 (curve of first compound, second compound 0.0949 µM): > 10000 nM; IC50 (curve of first compound, second compound 0.3 µM): > 10000 nM; viability, T/C (second compound 0.000949 µM, first compound 0.0316 µM): 130%; viability, T/C (second compound 0.000949 µM, first compound 0.1 µM): 121%; viability, T/C (second compound 0.000949 µM, first compound 0.316 µM): 107%; viability, T/C (second compound 0.000949 µM, first compound 1 µM): 85.4%; viability, T/C (second compound 0.000949 µM, first compound 3.16 µM): 93.8%; viability, T/C (second compound 0.000949 µM, first compound 10 µM): 115%; viability, T/C (second compound 0.003 µM, first compound 0.0316 µM): 114%; viability, T/C (second compound 0.003 µM, first compound 0.1 µM): 92.9%; viability, T/C (second compound 0.003 µM, first compound 0.316 µM): 94.1%; viability, T/C (second compound 0.003 µM, first compound 1 µM): 86.7%; viability, T/C (second compound 0.003 µM, first compound 3.16 µM): 81.5%; viability, T/C (second compound 0.003 µM, first compound 10 µM): 97.1%; viability, T/C (second compound 0.00949 µM, first compound 0.0316 µM): 106%; viability, T/C (second compound 0.00949 µM, first compound 0.1 µM): 99.2%; viability, T/C (second compound 0.00949 µM, first compound 0.316 µM): 84.4%; viability, T/C (second compound 0.00949 µM, first compound 1 µM): 122%; viability, T/C (second compound 0.00949 µM, first compound 3.16 µM): 86.1%; viability, T/C (second compound 0.00949 µM, first compound 10 µM): 97.7%; viability, T/C (second compound 0.03 µM, first compound 0.0316 µM): 87.4%; viability, T/C (second compound 0.03 µM, first compound 0.1 µM): 69.8%; viability, T/C (second compound 0.03 µM, first compound 0.316 µM): 102%; viability, T/C (second compound 0.03 µM, first compound 1 µM): 107%; viability, T/C (second compound 0.03 µM, first compound 3.16 µM): 79.9%; viability, T/C (second compound 0.03 µM, first compound 10 µM): 102%; viability, T/C (second compound 0.0949 µM, first compound 0.0316 µM): 75.6%; viability, T/C (second compound 0.0949 µM, first compound 0.1 µM): 131%; viability, T/C (second compound 0.0949 µM, first compound 0.316 µM): 86.9%; viability, T/C (second compound 0.0949 µM, first compound 1 µM): 119%; viability, T/C (second compound 0.0949 µM, first compound 3.16 µM): 113%; viability, T/C (second compound 0.0949 µM, first compound 10 µM): 117%; viability, T/C (second compound 0.3 µM, first compound 0.0316 µM): 92.3%; viability, T/C (second compound 0.3 µM, first compound 0.1 µM): 88.6%; viability, T/C (second compound 0.3 µM, first compound 0.316 µM): 110%; viability, T/C (second compound 0.3 µM, first compound 1 µM): 108%; viability, T/C (second compound 0.3 µM, first compound 3.16 µM): 111%; viability, T/C (second compound 0.3 µM, first compound 10 µM): 103%

Which viability, T/C (compound 0.0316 µM) does the source give for C[C@@H](NC(=O)c1ncnc(N)c1Cl)c1ncc(C(=O)Nc2cc(C(F)(F)F)c(Cl)cn2)s1 here?
Its viability, T/C is 106% [middle of 4 runs].

What about the viability, T/C (compound 10 µM) of the same compound?
Its viability, T/C is 99.5% [middle of 4 runs].

What about the IC50 (curve of compound) of the same compound?
Its IC50 is > 10000 nM.

Which results are given for O=C(c1ccc(F)c(F)c1Nc1ccc(I)cc1F)N1CC(O)([C@@H]2CCCCN2)C1 + C=CC(=O)N1CCN(c2nc(OCC3CCCN3C)nc3c(F)c(-c4nc(N)cc(C)c4C(F)(F)F)c(Cl)cc23)C(C)C1?
IC50 (curve of first compound, second compound 0.00316 µM): 509 nM; IC50 (curve of first compound, second compound 0.01 µM): 618 nM; IC50 (curve of first compound, second compound 0.0316 µM): 648 nM; IC50 (curve of first compound, second compound 0.1 µM): 570 nM; IC50 (curve of first compound, second compound 0.316 µM): 740 nM; IC50 (curve of first compound, second compound 1 µM): 694 nM; viability, T/C (second compound 0.00316 µM, first compound 0.00316 µM): 98.1%; viability, T/C (second compound 0.00316 µM, first compound 0.01 µM): 87.5%; viability, T/C (second compound 0.00316 µM, first compound 0.0316 µM): 77.2%; viability, T/C (second compound 0.00316 µM, first compound 0.1 µM): 72.3%; viability, T/C (second compound 0.00316 µM, first compound 0.316 µM): 63.5%; viability, T/C (second compound 0.00316 µM, first compound 1 µM): 36.4%; viability, T/C (second compound 0.01 µM, first compound 0.00316 µM): 78.5%; viability, T/C (second compound 0.01 µM, first compound 0.01 µM): 80.9%; viability, T/C (second compound 0.01 µM, first compound 0.0316 µM): 71.2%; viability, T/C (second compound 0.01 µM, first compound 0.1 µM): 75.8%; viability, T/C (second compound 0.01 µM, first compound 0.316 µM): 62.9%; viability, T/C (second compound 0.01 µM, first compound 1 µM): 40.3%; viability, T/C (second compound 0.0316 µM, first compound 0.00316 µM): 94.6%; viability, T/C (second compound 0.0316 µM, first compound 0.01 µM): 75.3%; viability, T/C (second compound 0.0316 µM, first compound 0.0316 µM): 76.3%; viability, T/C (second compound 0.0316 µM, first compound 0.1 µM): 70.3%; viability, T/C (second compound 0.0316 µM, first compound 0.316 µM): 66.5%; viability, T/C (second compound 0.0316 µM, first compound 1 µM): 40.8%; viability, T/C (second compound 0.1 µM, first compound 0.00316 µM): 95.9%; viability, T/C (second compound 0.1 µM, first compound 0.01 µM): 70.3%; viability, T/C (second compound 0.1 µM, first compound 0.0316 µM): 85.1%; viability, T/C (second compound 0.1 µM, first compound 0.1 µM): 72.2%; viability, T/C (second compound 0.1 µM, first compound 0.316 µM): 63.5%; viability, T/C (second compound 0.1 µM, first compound 1 µM): 38.2%; viability, T/C (second compound 0.316 µM, first compound 0.00316 µM): 84%; viability, T/C (second compound 0.316 µM, first compound 0.01 µM): 82.6%; viability, T/C (second compound 0.316 µM, first compound 0.0316 µM): 78.6%; viability, T/C (second compound 0.316 µM, first compound 0.1 µM): 76.2%; viability, T/C (second compound 0.316 µM, first compound 0.316 µM): 68%; viability, T/C (second compound 0.316 µM, first compound 1 µM): 43.6%; viability, T/C (second compound 1 µM, first compound 0.00316 µM): 70.2%; viability, T/C (second compound 1 µM, first compound 0.01 µM): 71.1%; viability, T/C (second compound 1 µM, first compound 0.0316 µM): 71.3%; viability, T/C (second compound 1 µM, first compound 0.1 µM): 77.2%; viability, T/C (second compound 1 µM, first compound 0.316 µM): 63.5%; viability, T/C (second compound 1 µM, first compound 1 µM): 42.7%

From PubChem BioAssay AID2060897 (Molecular Pharmacology Branch, DTP, NCI, 2025)
